Results taken from ChEMBL document CHEMBL4052625, “The evaluation of 1,4-benzoquinones as inhibitors of human monoamine oxidase” (Eur J Med Chem, 2017).

Legend:
[1] = molecular target: T1, Amine oxidase [flavin-containing] A (Homo sapiens, UniProt P21397); experiment: Competitive inhibition of human brain mitochondria MAO-A using kynuramine as substrate by Lineweaver-Burk analysis
T1 sequence (P21397 whole entry): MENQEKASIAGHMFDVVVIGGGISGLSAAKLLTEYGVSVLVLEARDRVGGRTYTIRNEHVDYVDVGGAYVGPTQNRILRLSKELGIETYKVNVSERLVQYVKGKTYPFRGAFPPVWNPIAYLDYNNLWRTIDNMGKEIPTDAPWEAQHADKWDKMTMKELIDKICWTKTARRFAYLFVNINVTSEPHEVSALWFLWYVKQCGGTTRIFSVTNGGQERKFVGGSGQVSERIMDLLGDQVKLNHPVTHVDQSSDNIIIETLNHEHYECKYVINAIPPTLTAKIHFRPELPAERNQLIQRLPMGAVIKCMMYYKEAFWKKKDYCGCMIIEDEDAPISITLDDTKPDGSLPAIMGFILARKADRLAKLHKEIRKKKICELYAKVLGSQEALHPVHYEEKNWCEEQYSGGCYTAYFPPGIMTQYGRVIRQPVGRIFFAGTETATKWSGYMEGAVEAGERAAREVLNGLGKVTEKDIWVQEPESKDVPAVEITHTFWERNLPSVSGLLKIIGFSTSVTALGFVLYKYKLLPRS

[2] = molecular target: T2, Amine oxidase [flavin-containing] B (Homo sapiens, UniProt P27338); experiment: Non-competitive inhibition of human brain mitochondria MAO-B using kynuramine as substrate by Lineweaver-Burk analysis
T2 sequence (P27338 whole entry): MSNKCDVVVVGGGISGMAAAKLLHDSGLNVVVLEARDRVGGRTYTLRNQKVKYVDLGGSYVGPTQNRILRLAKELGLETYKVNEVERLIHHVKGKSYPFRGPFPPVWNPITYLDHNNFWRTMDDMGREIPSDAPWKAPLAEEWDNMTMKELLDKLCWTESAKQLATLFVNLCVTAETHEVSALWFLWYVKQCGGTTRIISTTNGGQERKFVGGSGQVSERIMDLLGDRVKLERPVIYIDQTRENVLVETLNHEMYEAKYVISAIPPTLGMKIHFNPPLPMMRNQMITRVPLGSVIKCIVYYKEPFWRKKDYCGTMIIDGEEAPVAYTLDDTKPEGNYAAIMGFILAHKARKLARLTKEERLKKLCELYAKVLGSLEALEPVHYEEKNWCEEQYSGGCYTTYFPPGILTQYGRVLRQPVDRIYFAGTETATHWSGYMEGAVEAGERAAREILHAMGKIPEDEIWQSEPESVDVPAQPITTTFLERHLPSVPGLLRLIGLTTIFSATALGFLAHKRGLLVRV

[3] = molecular target: T1, Amine oxidase [flavin-containing] A; experiment: Inhibition of recombinant human MAO-A expressed in baculovirus infected BTI insect cell microsomes using kynuramine as substrate after 20 mins by fluorescence spectroscopy
[4] = molecular target: T2, Amine oxidase [flavin-containing] B; experiment: Inhibition of recombinant human MAO-B expressed in baculovirus infected BTI insect cell microsomes using kynuramine as substrate after 20 mins by fluorescence spectroscopy
Homo sapiens = organism: Homo sapiens; experiment: Selectivity index, ratio of IC50 for recombinant human MAO-B to IC50 for recombinant human MAO-A expressed in baculovirus infected BTI insect cell microsomes
[5] = molecular target: T2, Amine oxidase [flavin-containing] B; experiment: Inhibition of human liver mitochondria MAO-B using 1-methyl-4-phenyl-1,2,3,6-tetrahydropyridine as substrate after 15 mins by spectrophotometric analysis
[6] = molecular target: T1, Amine oxidase [flavin-containing] A; experiment: Inhibition of human gastrointestinal mitochondria MAO-A using 1-methyl-4-(1-methylpyrrol-2-yl)-1,2,3,6-tetrahydropyridine as substrate after 30 mins by spectrophotometric analysis
[7] = molecular target: T1, Amine oxidase [flavin-containing] A; experiment: Irreversible inhibition of recombinant human MAO-A expressed in baculovirus infected BTI insect cell microsomes assessed as residual activity using kynuramine as substrate at 13 uM preincubated for 15 mins with subsequent dialysis for 24 hrs followed by substrate addition measured after 20 mins by fluorescence spectroscopy relative to negative control; settings: read-out: INH

Compound	Ki [1] [µM]	Ki [2] [µM]	IC50 [3] [µM]	IC50 [4] [µM]	Ratio IC50 (Homo sapiens)	Ki [5] [µM]	Ki [6] [µM]	activity at 13 µM [7] [%]
O=C1C=CC(=O)C=C1 [BENZOQUINONE]	9.62	20.3	4.82	10.2	2.1	–	–	–
CC1=C(C)C(=O)c2cc(C)ccc2C1=O	–	–	–	–	–	6	3	–
O=C1C=CC(=O)C(Cc2ccccc2)=C1	–	–	5.37	23.2	4.3	–	–	–
O=C1C=CC(=O)C(OCc2ccccc2)=C1	–	–	13.2	3.69	0.3	–	–	–
C#CCN(C)Cc1ccccc1 [PARGYLINE]	–	–	–	–	–	–	–	0.1 to 1.6
O=C1C=CC(=O)C(c2ccccc2)=C1	–	–	5.03	7.87	1.6	–	–	–
O=C1C=CC(=O)C(C2CCCC2)=C1	–	–	5.84	17.8	3	–	–	–
